# Data from ChEMBL document CHEMBL5653615 (J Biol Chem, 2013).
# How the values were obtained:
# [1] = biological target: CDK9/Cyclin K (Homo sapiens) (UniProt P50750+O75909); assay: Inhibition of human CDK9/cyclin K at 18.6 nM by HotSpot assay relative to control; type: protein-complex assay
# [2] = biological target: T1, NUAK family SNF1-like kinase 1 (Homo sapiens) (UniProt O60285); assay: Inhibition of human ARK5 at 18.6 nM by HotSpot assay relative to control
# T1 sequence (whole entry): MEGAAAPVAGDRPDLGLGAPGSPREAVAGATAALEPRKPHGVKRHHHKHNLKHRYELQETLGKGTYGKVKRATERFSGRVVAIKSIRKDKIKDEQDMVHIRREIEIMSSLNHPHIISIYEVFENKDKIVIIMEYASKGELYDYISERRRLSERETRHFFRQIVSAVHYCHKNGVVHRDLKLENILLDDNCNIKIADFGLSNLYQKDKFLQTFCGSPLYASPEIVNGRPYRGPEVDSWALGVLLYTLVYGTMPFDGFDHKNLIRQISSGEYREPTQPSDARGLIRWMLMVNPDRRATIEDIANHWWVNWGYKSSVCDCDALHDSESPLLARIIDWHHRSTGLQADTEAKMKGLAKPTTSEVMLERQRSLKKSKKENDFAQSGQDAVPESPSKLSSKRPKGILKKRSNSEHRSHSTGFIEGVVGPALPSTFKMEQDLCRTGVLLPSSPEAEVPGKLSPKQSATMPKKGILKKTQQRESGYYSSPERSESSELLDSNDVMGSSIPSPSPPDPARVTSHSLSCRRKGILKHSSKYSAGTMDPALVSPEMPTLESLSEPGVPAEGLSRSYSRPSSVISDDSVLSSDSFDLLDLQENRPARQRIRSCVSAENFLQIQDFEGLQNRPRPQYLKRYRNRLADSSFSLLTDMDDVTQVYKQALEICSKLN
# [3] = biological target: Activated CDC42 kinase 1 (Homo sapiens) (UniProt Q07912); assay: Inhibition of human ACK1 at 18.6 nM by HotSpot assay relative to control
# [4] = biological target: T2, Serine/threonine-protein kinase haspin (Homo sapiens) (UniProt Q8TF76); assay: Inhibition of human Haspin at 18.6 nM by HotSpot assay relative to control
# T2 sequence (whole entry): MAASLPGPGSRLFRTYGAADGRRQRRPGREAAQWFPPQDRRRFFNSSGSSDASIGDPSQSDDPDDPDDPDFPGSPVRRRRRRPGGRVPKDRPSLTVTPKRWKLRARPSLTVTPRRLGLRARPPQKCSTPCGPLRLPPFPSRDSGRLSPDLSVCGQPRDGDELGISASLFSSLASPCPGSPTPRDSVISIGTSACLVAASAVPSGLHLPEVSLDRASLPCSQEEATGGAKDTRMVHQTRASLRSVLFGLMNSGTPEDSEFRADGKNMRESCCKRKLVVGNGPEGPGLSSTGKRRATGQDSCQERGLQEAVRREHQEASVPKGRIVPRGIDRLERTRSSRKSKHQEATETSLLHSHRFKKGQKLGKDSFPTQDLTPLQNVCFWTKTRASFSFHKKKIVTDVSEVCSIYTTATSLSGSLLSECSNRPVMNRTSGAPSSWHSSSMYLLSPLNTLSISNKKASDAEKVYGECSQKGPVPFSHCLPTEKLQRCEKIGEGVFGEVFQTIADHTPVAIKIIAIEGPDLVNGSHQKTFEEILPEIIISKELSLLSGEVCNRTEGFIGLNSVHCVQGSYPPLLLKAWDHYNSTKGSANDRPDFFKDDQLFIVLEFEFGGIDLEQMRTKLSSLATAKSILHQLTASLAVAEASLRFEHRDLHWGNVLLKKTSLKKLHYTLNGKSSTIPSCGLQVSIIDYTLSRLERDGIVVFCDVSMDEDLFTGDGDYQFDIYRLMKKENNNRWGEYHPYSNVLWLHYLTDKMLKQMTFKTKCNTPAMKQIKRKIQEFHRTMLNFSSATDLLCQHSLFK
# [5] = biological target: Glycogen synthase kinase-3 alpha (Homo sapiens) (UniProt P49840); assay: Inhibition of human GSK3a at 18.6 nM by HotSpot assay relative to control
# [6] = biological target: T3, Serine/threonine-protein kinase DCLK2 (Homo sapiens) (UniProt Q8N568); assay: Inhibition of human DCAMKL2 at 18.6 nM by HotSpot assay relative to control
# T3 sequence (whole entry): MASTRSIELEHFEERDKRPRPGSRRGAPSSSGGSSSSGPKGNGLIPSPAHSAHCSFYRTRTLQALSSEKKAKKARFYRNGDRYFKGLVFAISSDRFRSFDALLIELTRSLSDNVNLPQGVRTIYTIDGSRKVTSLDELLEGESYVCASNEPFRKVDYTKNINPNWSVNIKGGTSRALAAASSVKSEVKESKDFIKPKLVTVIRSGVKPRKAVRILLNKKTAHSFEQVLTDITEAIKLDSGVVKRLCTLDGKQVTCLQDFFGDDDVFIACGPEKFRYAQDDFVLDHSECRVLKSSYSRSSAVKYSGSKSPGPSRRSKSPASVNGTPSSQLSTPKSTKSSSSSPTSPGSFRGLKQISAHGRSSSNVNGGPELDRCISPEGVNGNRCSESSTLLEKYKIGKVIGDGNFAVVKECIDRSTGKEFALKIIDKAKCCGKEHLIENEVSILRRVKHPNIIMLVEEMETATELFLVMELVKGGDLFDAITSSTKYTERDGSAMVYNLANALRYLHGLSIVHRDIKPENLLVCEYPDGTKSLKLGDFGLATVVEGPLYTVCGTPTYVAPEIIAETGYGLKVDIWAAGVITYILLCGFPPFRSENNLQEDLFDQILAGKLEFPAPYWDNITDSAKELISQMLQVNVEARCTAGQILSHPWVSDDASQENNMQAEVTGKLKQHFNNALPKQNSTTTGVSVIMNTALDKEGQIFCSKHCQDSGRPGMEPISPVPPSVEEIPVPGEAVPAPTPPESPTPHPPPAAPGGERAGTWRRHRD
# [7] = biological target: Tyrosine-protein kinase BTK (Homo sapiens) (UniProt Q06187); assay: Inhibition of human BTK at 18.6 nM by HotSpot assay relative to control
# [8] = biological target: Receptor tyrosine-protein kinase erbB-2 (Homo sapiens) (UniProt P04626); assay: Inhibition of human ERBB2 at 18.6 nM by HotSpot assay relative to control
# [9] = biological target: Vascular endothelial growth factor receptor 2 (Homo sapiens) (UniProt P35968); assay: Inhibition of human KDR at 18.6 nM by HotSpot assay relative to control
# [10] = biological target: Cyclin-dependent kinase 5/CDK5 activator 1 (Homo sapiens) (UniProt Q00535+Q15078); assay: Inhibition of human CDK5/p35 at 1.82 nM by HotSpot assay relative to control; type: protein-complex assay
# Homo sapiens = organism: Homo sapiens; assay: Inhibition of human CDK2/cyclin A at 1.82 nM by HotSpot assay relative to control
# [11] = biological target: T1, NUAK family SNF1-like kinase 1 (Homo sapiens); assay: Inhibition of human ARK5 at 1.82 nM by HotSpot assay relative to control
# [12] = biological target: Serine/threonine-protein kinase PLK3 (Homo sapiens) (UniProt Q9H4B4); assay: Inhibition of human PLK3 at 1.82 nM by HotSpot assay relative to control
# Sequence of Serine/threonine-protein kinase PLK3 (Homo sapiens) (Q9H4B4 whole entry, looked up): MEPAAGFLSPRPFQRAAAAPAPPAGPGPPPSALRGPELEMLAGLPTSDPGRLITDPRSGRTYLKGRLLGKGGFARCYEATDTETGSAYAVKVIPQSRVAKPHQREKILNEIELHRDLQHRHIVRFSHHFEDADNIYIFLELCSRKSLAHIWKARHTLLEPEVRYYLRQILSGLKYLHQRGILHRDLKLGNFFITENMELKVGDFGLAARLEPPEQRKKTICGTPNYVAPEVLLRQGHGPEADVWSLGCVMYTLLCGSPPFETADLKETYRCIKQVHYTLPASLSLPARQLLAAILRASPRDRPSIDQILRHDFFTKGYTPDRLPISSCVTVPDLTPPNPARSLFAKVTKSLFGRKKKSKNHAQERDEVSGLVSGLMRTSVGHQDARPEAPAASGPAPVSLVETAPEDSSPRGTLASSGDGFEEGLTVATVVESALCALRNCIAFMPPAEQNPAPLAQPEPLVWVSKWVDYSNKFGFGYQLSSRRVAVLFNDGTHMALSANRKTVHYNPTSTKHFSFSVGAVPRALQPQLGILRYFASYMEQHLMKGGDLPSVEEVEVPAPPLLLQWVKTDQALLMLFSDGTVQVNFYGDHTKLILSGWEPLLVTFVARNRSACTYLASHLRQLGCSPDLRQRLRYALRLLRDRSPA
# Sequence of Tyrosine-protein kinase BTK (Homo sapiens) (Q06187 whole entry): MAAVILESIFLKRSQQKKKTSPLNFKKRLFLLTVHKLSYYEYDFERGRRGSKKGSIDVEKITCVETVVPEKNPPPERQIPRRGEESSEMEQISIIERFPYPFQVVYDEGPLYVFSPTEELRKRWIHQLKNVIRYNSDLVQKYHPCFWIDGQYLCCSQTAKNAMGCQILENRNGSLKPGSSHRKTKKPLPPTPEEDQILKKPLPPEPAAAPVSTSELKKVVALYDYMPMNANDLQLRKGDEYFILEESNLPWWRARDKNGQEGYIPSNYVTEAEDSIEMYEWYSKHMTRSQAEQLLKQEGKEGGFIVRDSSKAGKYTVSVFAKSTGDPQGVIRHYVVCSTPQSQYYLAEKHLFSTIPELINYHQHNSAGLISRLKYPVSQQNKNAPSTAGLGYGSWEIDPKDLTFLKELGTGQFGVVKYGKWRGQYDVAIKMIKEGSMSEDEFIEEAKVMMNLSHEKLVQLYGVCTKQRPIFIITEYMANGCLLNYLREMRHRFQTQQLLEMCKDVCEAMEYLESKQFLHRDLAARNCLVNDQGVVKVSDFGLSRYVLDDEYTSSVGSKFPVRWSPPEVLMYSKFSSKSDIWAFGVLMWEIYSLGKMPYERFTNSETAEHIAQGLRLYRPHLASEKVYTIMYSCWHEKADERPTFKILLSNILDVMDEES
# Sequence of Receptor tyrosine-protein kinase erbB-2 (Homo sapiens) (P04626 whole entry): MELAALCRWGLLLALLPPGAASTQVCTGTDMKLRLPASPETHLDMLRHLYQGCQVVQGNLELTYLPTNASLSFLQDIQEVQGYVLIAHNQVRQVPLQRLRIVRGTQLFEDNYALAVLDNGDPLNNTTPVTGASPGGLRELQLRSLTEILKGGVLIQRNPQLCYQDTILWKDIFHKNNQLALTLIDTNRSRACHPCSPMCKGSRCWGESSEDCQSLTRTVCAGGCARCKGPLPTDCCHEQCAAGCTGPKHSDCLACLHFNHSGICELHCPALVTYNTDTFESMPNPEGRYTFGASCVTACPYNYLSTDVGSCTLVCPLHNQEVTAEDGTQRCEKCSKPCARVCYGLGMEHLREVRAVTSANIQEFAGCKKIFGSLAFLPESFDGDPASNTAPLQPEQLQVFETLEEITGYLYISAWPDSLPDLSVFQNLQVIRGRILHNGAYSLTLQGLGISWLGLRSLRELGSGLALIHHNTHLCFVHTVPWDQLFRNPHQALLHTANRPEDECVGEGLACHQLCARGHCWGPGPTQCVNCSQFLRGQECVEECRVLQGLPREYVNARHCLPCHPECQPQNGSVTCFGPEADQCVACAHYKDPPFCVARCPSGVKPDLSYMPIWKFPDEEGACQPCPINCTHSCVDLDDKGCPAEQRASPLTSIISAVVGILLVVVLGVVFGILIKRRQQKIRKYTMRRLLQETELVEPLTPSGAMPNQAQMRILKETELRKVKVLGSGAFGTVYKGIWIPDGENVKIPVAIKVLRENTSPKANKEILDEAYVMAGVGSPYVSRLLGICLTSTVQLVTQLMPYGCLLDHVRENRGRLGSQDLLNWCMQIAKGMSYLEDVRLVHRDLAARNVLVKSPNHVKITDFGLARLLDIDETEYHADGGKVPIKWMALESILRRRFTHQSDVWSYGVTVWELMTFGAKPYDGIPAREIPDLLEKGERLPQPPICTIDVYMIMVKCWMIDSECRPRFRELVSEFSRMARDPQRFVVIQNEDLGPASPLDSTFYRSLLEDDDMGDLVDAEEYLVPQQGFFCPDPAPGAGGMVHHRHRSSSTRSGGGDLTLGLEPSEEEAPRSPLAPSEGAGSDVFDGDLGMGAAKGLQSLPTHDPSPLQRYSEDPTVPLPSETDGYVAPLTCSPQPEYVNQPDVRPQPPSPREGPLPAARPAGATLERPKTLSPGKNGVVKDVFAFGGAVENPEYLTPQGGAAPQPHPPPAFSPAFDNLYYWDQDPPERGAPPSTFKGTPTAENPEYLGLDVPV
# Sequence of Cyclin-dependent kinase 5/CDK5 activator 1 (Homo sapiens) (Q00535 whole entry): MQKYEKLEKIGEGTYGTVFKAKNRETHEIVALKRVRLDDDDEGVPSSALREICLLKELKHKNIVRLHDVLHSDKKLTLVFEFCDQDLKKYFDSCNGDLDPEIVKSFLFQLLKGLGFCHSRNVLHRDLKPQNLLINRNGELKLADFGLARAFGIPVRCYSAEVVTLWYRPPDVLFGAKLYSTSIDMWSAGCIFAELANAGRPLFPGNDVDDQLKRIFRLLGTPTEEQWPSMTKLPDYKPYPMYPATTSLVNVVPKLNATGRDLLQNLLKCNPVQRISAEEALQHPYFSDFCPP
# Sequence of Cyclin-dependent kinase 5/CDK5 activator 1 (Homo sapiens) (Q15078 99-307 partner limits assumed): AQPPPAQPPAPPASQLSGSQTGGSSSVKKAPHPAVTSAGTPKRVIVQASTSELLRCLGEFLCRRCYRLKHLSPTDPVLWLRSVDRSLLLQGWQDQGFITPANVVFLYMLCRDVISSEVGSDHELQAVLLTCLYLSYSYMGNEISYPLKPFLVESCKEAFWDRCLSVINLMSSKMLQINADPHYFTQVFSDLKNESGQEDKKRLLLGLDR
# Sequence of Activated CDC42 kinase 1 (Homo sapiens) (Q07912 whole entry, looked up): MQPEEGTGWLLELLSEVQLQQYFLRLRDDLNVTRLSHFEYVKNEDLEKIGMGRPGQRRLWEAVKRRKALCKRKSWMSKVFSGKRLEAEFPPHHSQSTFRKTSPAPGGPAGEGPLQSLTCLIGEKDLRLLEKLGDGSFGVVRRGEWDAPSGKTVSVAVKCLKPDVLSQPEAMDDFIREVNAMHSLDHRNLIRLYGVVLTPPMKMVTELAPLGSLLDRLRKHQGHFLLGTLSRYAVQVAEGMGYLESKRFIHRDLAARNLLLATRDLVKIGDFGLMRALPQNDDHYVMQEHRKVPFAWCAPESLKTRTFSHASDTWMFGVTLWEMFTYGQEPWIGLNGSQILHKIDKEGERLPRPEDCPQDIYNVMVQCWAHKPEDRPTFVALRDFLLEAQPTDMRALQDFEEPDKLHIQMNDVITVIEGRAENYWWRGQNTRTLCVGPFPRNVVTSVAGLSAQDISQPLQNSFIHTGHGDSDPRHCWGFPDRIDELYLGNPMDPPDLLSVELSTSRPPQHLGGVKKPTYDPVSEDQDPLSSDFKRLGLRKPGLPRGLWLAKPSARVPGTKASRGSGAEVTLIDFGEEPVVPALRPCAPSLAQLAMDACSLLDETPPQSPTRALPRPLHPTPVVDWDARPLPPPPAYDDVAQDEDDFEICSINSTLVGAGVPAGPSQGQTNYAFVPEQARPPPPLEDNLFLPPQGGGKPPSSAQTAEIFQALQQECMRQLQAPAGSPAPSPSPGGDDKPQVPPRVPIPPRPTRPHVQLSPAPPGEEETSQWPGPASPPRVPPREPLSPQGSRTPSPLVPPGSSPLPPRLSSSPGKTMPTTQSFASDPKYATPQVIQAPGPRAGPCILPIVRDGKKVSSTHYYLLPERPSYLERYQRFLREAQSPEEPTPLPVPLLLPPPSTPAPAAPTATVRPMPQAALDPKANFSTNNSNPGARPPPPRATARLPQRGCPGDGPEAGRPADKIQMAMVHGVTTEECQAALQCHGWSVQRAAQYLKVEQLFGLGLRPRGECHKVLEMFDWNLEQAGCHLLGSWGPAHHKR
# Sequence of Glycogen synthase kinase-3 alpha (Homo sapiens) (P49840 2-483 limits assumed): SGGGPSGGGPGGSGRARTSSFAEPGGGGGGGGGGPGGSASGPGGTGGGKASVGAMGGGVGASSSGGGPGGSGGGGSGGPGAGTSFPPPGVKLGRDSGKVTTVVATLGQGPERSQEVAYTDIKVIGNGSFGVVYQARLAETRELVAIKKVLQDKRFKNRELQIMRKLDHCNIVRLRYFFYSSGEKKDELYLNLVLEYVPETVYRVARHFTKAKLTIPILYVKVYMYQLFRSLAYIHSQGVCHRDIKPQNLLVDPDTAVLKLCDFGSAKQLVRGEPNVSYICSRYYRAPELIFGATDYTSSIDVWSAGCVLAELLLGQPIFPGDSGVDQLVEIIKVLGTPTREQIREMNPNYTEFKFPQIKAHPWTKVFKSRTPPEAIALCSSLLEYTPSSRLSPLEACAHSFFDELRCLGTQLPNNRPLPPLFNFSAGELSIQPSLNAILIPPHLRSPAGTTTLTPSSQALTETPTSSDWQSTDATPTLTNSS
inhibition [1],inhibition [2],inhibition [3],inhibition [4],inhibition [5],inhibition [6],inhibition [7],inhibition [8],inhibition [9],inhibition [10],inhibition (Homo sapiens),inhibition [11],inhibition [12],SMILES
1.45%,-1.57%,3%,-1.76%,-3.5%,10.8%,-1.94%,1.71%,-3.85%,–,–,–,–,C[C@]1(O)C[C@@H](c2nc(-c3ccc4ccc(-c5ccccc5)nc4c3)c3c(N)nccn32)C1
–,–,–,–,–,–,–,–,–,1.01%,0.69%,1.78%,2.72%,C[C@@]1(C(=O)Nc2ccc(F)nc2)CCCN1c1nc(Nc2cc(C3CC3)n[nH]2)c2cccn2n1
